Earlier results in patent US10744098B2, “Spray-dried solid-in-oil-in-water dispersions for inhalation of active pharmaceutical ingredients” (Novartis AG, priority 2014, dated 2020).

Target: β2-adrenoceptor (Homo sapiens, UniProt P07550)
Sequence (P07550 whole entry, species assumed): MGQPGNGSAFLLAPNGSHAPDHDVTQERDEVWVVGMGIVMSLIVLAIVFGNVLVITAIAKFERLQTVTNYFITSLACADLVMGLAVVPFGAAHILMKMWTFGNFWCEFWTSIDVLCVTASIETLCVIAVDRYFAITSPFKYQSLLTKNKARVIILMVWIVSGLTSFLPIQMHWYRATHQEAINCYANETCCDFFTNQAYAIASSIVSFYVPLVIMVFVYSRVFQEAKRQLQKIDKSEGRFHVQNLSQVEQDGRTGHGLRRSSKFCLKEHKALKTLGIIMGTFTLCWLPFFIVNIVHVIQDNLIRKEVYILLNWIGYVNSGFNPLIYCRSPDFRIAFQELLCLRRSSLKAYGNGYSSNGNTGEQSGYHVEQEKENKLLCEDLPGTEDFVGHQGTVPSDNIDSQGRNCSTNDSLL

duration of action: over 24 hours
onset of action: about 10 minutes
Structure (SMILES): CCc1cc2c(cc1CC)CC(NC[C@H](O)c1ccc(O)c3[nH]c(=O)ccc13)C2 [indacaterol, (R)-5-[2-(5,6-diethyl-indan-2-ylamino)-1-hydroxyethyl]-8-hydroxy-1H-quinolin-2-one]
